Test results from ChEMBL document CHEMBL6182916, “Unexpected Discovery of a Novel Triphenylphosphonium Alkylalcohol That Triggers Cancer Cell Death via Mitophagy and Ferroptosis” (J Med Chem, 2025).
Active and inactive are the calls of the source. No cut-off for these calls is given here.

Tests used:
HCC827 [1] = experiment: Downregulation of SDHB expression in human HCC827 cells at 0.25 to 0.5 uM; type: functional, cell-based; conditions: dose 0.25-0.5 µM
HCC827 [2] = experiment: Induction of apoptosis in human HCC827 cells assessed as necrotic cells at 0.5 uM measured after 48 hrs by annexin V and PI staining based flow cytometry analysis (reference value: 1.18%); type: functional
HCC827 [3] = experiment: Antiproliferative activity against human HCC827 cells assessed as cell viability preincubated with Nec followed by compound addition and measured after 48 hrs by MTT assay; type: functional, cell-based
HCC827 [4] = experiment: Induction of ferroptosis in human HCC827 cells assessed as decrease in xCT expression incubated for 24 hrs; type: functional, cell-based; conditions: dose 0.25-0.5 µM
HCC827 [5] = experiment: Effect on UQCRC2 expression in human HCC827 cells at 0.25 to 0.5 uM incubated for 24 hrs by Western blot analysis; type: functional, cell-based; conditions: dose 0.25-0.5 µM
HCC827 [6] = experiment: Antiproliferative activity against human HCC827 cells assessed as increase in cell viability at 1 uM measured after 48 hrs in presence of 3-MA by MTT assay; type: functional, cell-based
A-375 = experiment: Antiproliferative activity against human A-375 cells assessed as inhibition of cell growth measured after 72 hrs by MTT assay; type: functional, cell-based; conditions: A-375, 72 h
Mitochondrial membrane [7] = experiment: Induction of mitochondrial membrane depolarization in human HCC827 cells assessed as increase in J-monomer ratio at 0.125 to 0.5 uM incubated for 4 hrs by JC-1 staining based flow cytometric analysis; type: cell membranes; conditions: dose 0.125-0.5 µM
HCC827 [8] = experiment: Induction of ferroptosis in human HCC827 cells assessed as increase in MDA content incubated for 24 hrs by absorbance based analysis; type: functional, cell-based; conditions: dose 0.25-0.5 µM
Mitochondrial membrane [9] = experiment: Induction of mitochondrial membrane depolarization in human HCC827 cells assessed as decrease in red fluorescence at 0.125 to 0.5 uM incubated for 4 hrs by JC-1 staining based confocal microscopy analysis; type: cell membranes; conditions: dose 0.125-0.5 µM
HEK-293T = experiment: Downregulation of […] expression level in human HEK293T cells; type: functional, cell-based; conditions: dose 0.25-0.5 µM
HCC827 [10] = experiment: Antitumor activity against human HCC827 cells xenografted in female nude mouse model assessed as reduction in tumor size at 5 to 10 mg/kg, ip measured every two days for 14 days; type: functional, organism-based; conditions: dose 5-10 mg/kg, time 14.0 day
Mitochondrial membrane [11] = experiment: Induction of mitochondrial membrane depolarization in human HCC827 cells assessed as increase green fluorescence incubated for 4 hrs by JC-1 staining based confocal microscopy analysis; type: cell membranes; conditions: dose 0.125-0.5 µM
HCC827 [12] = experiment: Induction of cell cycle arrest in human HCC827 cells assessed as accumulation of cells at G1 phase at 0.1 uM incubated for 24 hrs by PI staining based flow cytometry analysis (reference value: 66.44%); type: functional
HCC827 [13] = experiment: Induction of ferroptosis in human HCC827 cells assessed as decrease in GPX4 expression incubated for 24 hrs; type: functional, cell-based; conditions: dose 0.25-0.5 µM
HCC827 [14] = experiment: Effect on ATP5A expression in human HCC827 cells at 0.25 to 0.5 uM incubated for 24 hrs by Western blot analysis; type: functional, cell-based; conditions: dose 0.25-0.5 µM
HCC827 [15] = experiment: Induction of apoptosis in human HCC827 cells assessed as early apoptotic cells at 1 uM measured after 48 hrs by annexin V and PI staining based flow cytometry analysis (reference value: 0.70%); type: functional
HCC827 [16] = experiment: Antiproliferative activity against human HCC827 cells assessed as cell viability at 1 uM measured after 48 hrs in presence of SAS by MTT assay relative to control; type: functional; conditions: read-out: Activity
[17] = Toxicity in female BALB/c mouse assessed as effect on body weight at 30 mg/kg, ip measured for 7 days; type: organism-based; conditions: in vivo, 168 h, time 7 day
HCC827 [18] = experiment: Induction of ROS generation in human HCC827 cells assessed as decrease in NADH content at 1 uM incubated for 4 hrs by absorbance based analysis; type: functional, cell-based
Mitochondrial membrane [19] = experiment: Induction of mitochondrial membrane depolarization in human BEAS-2B cells assessed as increase in JC-1 monomer ratio at 0.25 to 0.5 uM incubated for 4 hrs by JC-1 staining based confocal microscopy analysis; type: cell membranes; conditions: dose 0.25-0.5 µM
HCC827 [20] = experiment: Downregulation of HK-2 expression level in human HCC827 cells 0.5 uM incubated for 3 to 24 hrs in presence of BFA by Western blot analysis; type: functional, cell-based; conditions: time 3-24 hrs
HCC827 [21] = experiment: Antimetastatic activity against human HCC827 cells xenografted in female nude mouse model assessed as decrease in snail level at 5 to 10 mg/kg, ip by Western blot analysis; type: functional, organism-based; conditions: dose 5-10 mg/kg
HCC827 [22] = experiment: Induction of mitochondrial dysfunction in human HCC827 cells assessed as cristae reduction by TEM analysis; type: functional, cell-based
HCC827 [23] = experiment: Induction of mitochondrial dysfunction in human HCC827 cells assessed as suppression of maximal oxygen consumption rate incubated for 4 hrs by Seahorse XF96 extracellular flux analyzer; type: functional, cell-based; conditions: dose 0.125-5 µM
HCC827 [24] = experiment: Induction of mitophagy in human HCC827 cells assessed as increase in LC3-II/LC-3-I ratio at 0.5 uM measured after 24 hrs in presence of Baf A1 by Western blot analysis; type: functional, cell-based
NCI-H460 = experiment: Antiproliferative activity against human NCI-H460 cells assessed as inhibition of cell growth measured after 72 hrs by MTT assay; type: functional, cell-based; conditions: NCI-H460, 72 h
[25] = Toxicity in female Kunming mouse assessed as change in body weight at 70 mg/kg, ip measured every two days for 7 days; type: organism-based; conditions: in vivo, 168 h, time 7 day
HCC827 [26] = experiment: Downregulation of TIMM23 expression level in human HCC827 cells at 0.5 uM incubated for 24 hrs in presence of Baf A1 by Western blot analysis; type: functional, cell-based
Mitochondrial membrane [27] = experiment: Induction of mitochondrial membrane depolarization in HEK293T cells assessed as JC-1 monomer ratio by measuring increase green fluorescence at 0.25 uM incubated for 4 hrs by JC-1 staining based confocal microscopy analysis; type: cell membranes; conditions: Homo sapiens
HCC827 [28] = experiment: Effect on ATP5A expression in human HCC827 cells at 0.25 to 0.5 uM; type: functional, cell-based; conditions: dose 0.25-0.5 µM
HCC827 [29] = experiment: Induction of cell cycle arrest in human HCC827 cells assessed as accumulation of cells at G1 phase at 0.2 uM incubated for 24 hrs by PI staining based flow cytometry analysis (reference value: 66.44%); type: functional
HCC827 [30] = experiment: Induction of cell cycle arrest in human HCC827 cells assessed as accumulation of cells at S phase at 0.4 uM incubated for 24 hrs by PI staining based flow cytometry analysis (reference value: 26.41%); type: functional
HCC827 [31] = experiment: Induction of apoptosis in human HCC827 cells assessed as viable cells at 1 uM measured after 24 hrs by annexin V and PI staining based flow cytometry analysis (reference value: 95.10%); type: functional; conditions: read-out: Activity
HeLa = experiment: Induction of mitophagy in human HeLa cells assessed as colocalization of mitochondria and lysosomes at 0.5 uM by mitoGFP staining based confocal microscopy analysis; type: functional, cell-based
HCC827 [32] = experiment: Downregulation of HK-2 expression level in human HCC827 cells incubated for 24 hrs by Western blot analysis; type: functional, cell-based; conditions: dose 0.25-0.5 µM
HCC827 [33] = experiment: Induction of apoptosis in human HCC827 cells assessed as late apoptotic cells at 1 uM measured after 36 hrs by annexin V and PI staining based flow cytometry analysis (reference value: 2.18%); type: functional
HCC827 [34] = experiment: Induction of apoptosis in human HCC827 cells assessed as early apoptotic cells at 1 uM measured after 36 hrs by annexin V and PI staining based flow cytometry analysis (reference value: 1.80%); type: functional

Q: Which results are given for `Cc1ccc([P+](CCCCCCCCCCO)(c2ccc(C)cc2)c2ccc(C)cc2)cc1.[Br-]`?
A: Activity (HCC827 [1]): Active; Activity (HCC827 [2]): 2.09%; IC50 (HCC827 [3]): 130 nM; Activity (HCC827 [4]): Dose-dependent-effect; Activity (HCC827 [5]): Active; Activity (HCC827 [6]): Active; IC50 (A-375): 140 nM; Activity (Mitochondrial membrane [7]): Active; Activity (HCC827 [8]): Dose-dependent-effect; Activity (Mitochondrial membrane [9]): Active; Activity (HEK-293T): Dose-dependent-effect; Activity (HCC827 [10]): Active; Activity (Mitochondrial membrane [11]): Dose-dependent-effect; Activity (HCC827 [12]): 71.14%; Activity (HCC827 [13]): Dose-dependent-effect; Activity (HCC827 [14]): Active; Activity (HCC827 [15]): 5.85%; viability at 1 µM (HCC827 [16]): 7.48%; Activity [17]: Non-toxic; Activity (HCC827 [18]): Active; Activity (Mitochondrial membrane [19]): inactive; Activity (HCC827 [20]): inactive; Activity (HCC827 [21]): Active; Activity (HCC827 [22]): Active; Activity (HCC827 [23]): Dose-dependent-effect; Activity (HCC827 [24]): inactive; IC50 (NCI-H460): 110 nM; Activity [25]: Toxic; Activity (HCC827 [26]): inactive; Activity (Mitochondrial membrane [27]): inactive; Activity (HCC827 [28]): Active; Activity (HCC827 [29]): 76.74%; Activity (HCC827 [30]): 9.39%; viability at 1 µM (HCC827 [31]): 93.6%; Activity (HeLa): Active; Activity (HCC827 [32]): Dose-dependent-effect; Activity (HCC827 [33]): 0.32%; Activity (HCC827 [34]): 0.18%
